The record followed here is PubChem BioAssay (NCI).

SMILES strings stand for the structures.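 96-well plates; 48 h exposure; 5 concentrations. Endpoints by linear interpolation between flanking doses. Not reached: highest tested concentration assigned. GI50 marks 50% less growth. TGI denotes the concentration required for complete inhibition of growth.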

Some test systems named below: SNB-19 CNS; HCT-15 colon; HOP-92 NSCLC; UO-31 renal; CCRF-CEM leukemia; SN12C renal; SK-MEL-2 melanoma; HL-60(TB) leukemia; MALME-3M melanoma; CAKI-1 renal.
What all share (experiment): NCI anticancer screen, dose series, 48 h

With `O=C1N2CCC[C@H]2CS1(=O)=O`, the TGI in the test on SNB-19 CNS is > 100 µM; with HCT-15 colon it was 29.4 µM; with HOP-92 NSCLC it was 25.7 µM; in the test on UO-31 renal, 28.5 µM; in the test with CCRF-CEM leukemia, 7.1 µM; with SN12C renal, 29.1 µM. The TGI in the test on SK-MEL-2 melanoma stood at 34.4 µM; in the test on HL-60(TB) leukemia it was 39.3 µM; in the test on MALME-3M melanoma, 28.3 µM; in the test on CAKI-1 renal, 18.2 µM.

On to `CCCC1=C(OC)C(=O)c2c(C)cc(Cl)nc2C1=O`, for which the TGI came out at 34.9 µM with SNB-19 CNS; 11.2 µM with HCT-15 colon; 11.3 µM in the test on HOP-92 NSCLC; 26.5 µM in the test with UO-31 renal; 2.77 µM in the test on CCRF-CEM leukemia; 9.62 µM with SN12C renal. Moreover, the TGI in the test with SK-MEL-2 melanoma came to 24.4 µM; with HL-60(TB) leukemia, 3.65 µM; with MALME-3M melanoma, 9.71 µM; in the test on CAKI-1 renal, 21.7 µM.

As to `Cc1cc(C)c2c(c1)C/C(=C\c1cccc(C)c1C(=O)O)C2=O`, the TGI in the test on SNB-19 CNS, in the test on HCT-15 colon, in the test on HOP-92 NSCLC, in the test on UO-31 renal, with CCRF-CEM leukemia and with SN12C renal was > 100 µM in each case. In addition, the TGI in the test with SK-MEL-2 melanoma, in the test with HL-60(TB) leukemia, with MALME-3M melanoma and with CAKI-1 renal was > 100 µM each time.

With `C=C(Br)C[N+]12CN3CN(CN(C3)C1)C2`, the TGI with SNB-19 CNS, with HCT-15 colon, in the test with HOP-92 NSCLC, in the test with UO-31 renal, in the test with CCRF-CEM leukemia and in the test on SN12C renal was > 100 µM in each case. For the same compound, the TGI in the test on SK-MEL-2 melanoma, with HL-60(TB) leukemia, in the test with MALME-3M melanoma and in the test on CAKI-1 renal was > 100 µM each time.

Take `O=C(Nc1ccc(-n2cc(-c3ccncc3)c(-c3ccc(O)c(Cl)c3)n2)cc1)c1ccc(Cl)c(C(F)(F)F)c1`: the GI50 is 2.52 µM in the test on SNB-19 CNS; 1.21 µM in the test on HCT-15 colon; 1.07 µM in the test with HOP-92 NSCLC; 2.65 µM in the test on UO-31 renal; 0.275 µM in the test on CCRF-CEM leukemia; 2.57 µM in the test on SN12C renal. Besides, the GI50 in the test with SK-MEL-2 melanoma was 1.22 µM; with HL-60(TB) leukemia it was 1.83 µM; in the test on MALME-3M melanoma, 1.45 µM; in the test on CAKI-1 renal it was 2.05 µM. Besides, the TGI in the test with SNB-19 CNS is > 50 µM; with HCT-15 colon it was 4.39 µM; in the test on HOP-92 NSCLC it was 4.55 µM; in the test with UO-31 renal, 28.3 µM; with CCRF-CEM leukemia, > 50 µM; with SN12C renal, > 50 µM. The TGI came to 3.32 µM in the test on SK-MEL-2 melanoma, 12.5 µM in the test with HL-60(TB) leukemia, 6.71 µM in the test on MALME-3M melanoma and 14.7 µM with CAKI-1 renal.

Consider `COC(=O)/C=C\n1nc(Br)c(=O)[nH]c1=O`, for which the TGI in the test on SNB-19 CNS, in the test with HCT-15 colon, with HOP-92 NSCLC, in the test with UO-31 renal, in the test with CCRF-CEM leukemia and in the test on SN12C renal was > 100 µM in each case. Further, the TGI in the test on SK-MEL-2 melanoma, with HL-60(TB) leukemia, with MALME-3M melanoma and in the test on CAKI-1 renal was > 100 µM in each case.

For the compound `COC(=O)CCC(=O)NC1=C(Nc2ccccc2)C(=O)c2ccccc2C1=O`, the TGI in the test on SNB-19 CNS came out at 31.4 µM; with HCT-15 colon it was 27.6 µM; in the test with HOP-92 NSCLC, 31.7 µM; in the test on UO-31 renal, 32.2 µM; in the test with CCRF-CEM leukemia, 42.9 µM; with SN12C renal, 28.9 µM. In addition, the TGI turned out to be 16.4 µM in the test with SK-MEL-2 melanoma, 13.5 µM in the test on HL-60(TB) leukemia, 5.61 µM in the test with MALME-3M melanoma and 27.5 µM with CAKI-1 renal.

For the compound `COC(=O)[C@@H](NS(=O)(=O)CC12CCC(CC1)C2(C)C)C(C)(C)C`, the TGI with SNB-19 CNS, in the test on HCT-15 colon, in the test on HOP-92 NSCLC, with UO-31 renal, in the test on CCRF-CEM leukemia and with SN12C renal was > 100 µM each time. Further, the TGI in the test with SK-MEL-2 melanoma, with HL-60(TB) leukemia, with MALME-3M melanoma and in the test on CAKI-1 renal was > 100 µM each time.

Turning to `CCOc1ccc2nc3nc(=O)[nH]c(C)c3c(NC(C)(CO)CO)c2c1`, the TGI with SNB-19 CNS, in the test on HCT-15 colon, with HOP-92 NSCLC, in the test with UO-31 renal, in the test with CCRF-CEM leukemia and in the test with SN12C renal was > 100 µM throughout. For the same compound, the TGI in the test on SK-MEL-2 melanoma, with HL-60(TB) leukemia, in the test on MALME-3M melanoma and in the test with CAKI-1 renal was > 100 µM each time.

For `[N-]=[N+]=Nc1nc2ccccc2c(N=[N+]=[N-])c1Cl`, the TGI in the test with SNB-19 CNS, with HCT-15 colon, in the test with HOP-92 NSCLC, in the test on UO-31 renal, in the test on CCRF-CEM leukemia and in the test with SN12C renal was > 100 µM in each case. Further, the TGI with SK-MEL-2 melanoma, in the test with HL-60(TB) leukemia, in the test on MALME-3M melanoma and in the test with CAKI-1 renal was > 100 µM each time.

`COc1cccc(NC(=O)CC(=O)n2nc(-c3ccccc3)c(N=Nc3ccc(Cl)cc3)c2-c2ccccc2)c1`: the TGI is > 100 µM in the test with SNB-19 CNS; > 100 µM with HCT-15 colon; > 75 µM in the test on HOP-92 NSCLC; 30.8 µM in the test on UO-31 renal; > 39.6 µM with CCRF-CEM leukemia; > 100 µM in the test on SN12C renal. In addition, the TGI is 89.1 µM in the test with SK-MEL-2 melanoma, 56.1 µM in the test with HL-60(TB) leukemia, 78.8 µM in the test with MALME-3M melanoma and > 100 µM in the test on CAKI-1 renal.

For the compound `O=C(c1ccccc1)c1nnn(Cc2ccccc2Cn2nnc(C(=O)c3ccccc3)c2C(=O)c2ccccc2)c1C(=O)c1ccccc1`, the TGI with SNB-19 CNS, in the test with HCT-15 colon, with HOP-92 NSCLC, in the test with UO-31 renal, in the test with CCRF-CEM leukemia and in the test with SN12C renal was > 100 µM throughout. Further, the TGI in the test on SK-MEL-2 melanoma, in the test with HL-60(TB) leukemia, with MALME-3M melanoma and in the test on CAKI-1 renal was > 100 µM in each case.

Take `Oc1cccc2c(Br)ccnc12`: the TGI with SNB-19 CNS was 64.1 µM; in the test on HCT-15 colon it was 24.2 µM; with HOP-92 NSCLC, 23 µM; in the test on UO-31 renal, 21.6 µM; in the test on CCRF-CEM leukemia it was 4.1 µM; in the test with SN12C renal, 21.7 µM. The TGI in the test with SK-MEL-2 melanoma was 27.1 µM; in the test with HL-60(TB) leukemia, 0.983 µM; in the test on MALME-3M melanoma, 21.2 µM; with CAKI-1 renal, > 100 µM.
